Source: ChEMBL document CHEMBL1139108, “New thiopyrazolo[3,4-d]pyrimidine derivatives as anti-mycobacterial agents” (Bioorg Med Chem Lett, 2007)
Values after ≈ are worked out from the molar mass of the structure shown.

test system: Mycobacterium tuberculosis; assay: Antimycobacterial activity against Mycobacterium tuberculosis H37Rv; format: functional; details: not given

Structure (SMILES) | MIC
N#CCSc1ncnc2c1cnn2CC#N | 8 µg/mL (≈ 34.7 µM)
C=CCCSc1ncnc2c1cnn2Cc1cccnc1 | 32 µg/mL (≈ 108 µM)
C#CCSc1ncnc2c1cnn2CC=C | 63 µg/mL (≈ 274 µM)
C=CCSc1ncnc2c1cnn2CCC | 125 µg/mL (≈ 533 µM)
C=CCSc1ncnc2c1cnn2Cc1ccc(Cl)cc1 | 16 µg/mL (≈ 50.5 µM)
C#CCn1ncc2c(SCC=C)ncnc21 | 32 µg/mL (≈ 139 µM)
C=CCn1ncc2c(SCc3ccccc3Cl)ncnc21 | 32 µg/mL (≈ 101 µM)
C=CCSc1ncnc2c1cnn2CC=C | 125 µg/mL (≈ 538 µM)
C=CCn1ncc2c(SCC3CC3)ncnc21 | 125 µg/mL (≈ 507 µM)
Clc1ccccc1CSc1ncnc2[nH]ncc12 | 250 µg/mL (≈ 903 µM)
C=CCn1ncc2c(SCCO)ncnc21 | 250 µg/mL (≈ 1060 µM)
N#CCSc1ncnc2c1cnn2Cc1ccccc1 | 32 µg/mL (≈ 114 µM)
Clc1ccc(Cn2ncc3c(SCc4ccccc4)ncnc32)cc1 | 16 µg/mL (≈ 43.6 µM)
C=CCn1ncc2c(SCC#N)ncnc21 | 32 µg/mL (≈ 138 µM)
Clc1ccc(CSc2ncnc3c2cnn3Cc2ccc(Cl)cc2)cc1 | 63 µg/mL (≈ 157 µM)
CCCSc1ncnc2c1cnn2Cc1ccccc1 | 16 µg/mL (≈ 56.3 µM)
N#CCSc1ncnc2c1cnn2Cc1ccc(Cl)cc1 | 125 µg/mL (≈ 396 µM)
N#CCSc1ncnc2[nH]ncc12 | 63 µg/mL (≈ 329 µM)
N#CCn1ncc2c(SCc3ccccc3)ncnc21 | 32 µg/mL (≈ 114 µM)
Clc1ccccc1Cn1ncc2c(SCc3ccccc3)ncnc21 | 16 µg/mL (≈ 43.6 µM)
C=CCCSc1ncnc2[nH]ncc12 | 125 µg/mL (≈ 606 µM)
c1ccc(CSc2ncnc3c2cnn3Cc2ccncc2)cc1 | 16 µg/mL (≈ 48 µM)
c1ccc(CSc2ncnc3c2cnn3Cc2cccnc2)cc1 | 8 µg/mL (≈ 24 µM)

Structure (SMILES) | MIC
C=CCSc1ncnc2c1cnn2Cc1ccccc1 | 32 µg/mL (≈ 113 µM)
c1ccc(CSc2ncnc3c2cnn3CC2CC2)cc1 | 250 µg/mL (≈ 843 µM)
C=CCCSc1ncnc2c1cnn2Cc1ccccc1 | 16 µg/mL (≈ 54 µM)
c1ccc(CSc2ncnc3c2cnn3Cc2ccccc2)cc1 | 16 µg/mL (≈ 48.1 µM)
c1cc(CSc2ncnc3[nH]ncc23)ccn1 | 250 µg/mL (≈ 1030 µM)
C=CCCn1ncc2c(SCC=C)ncnc21 | 63 µg/mL (≈ 256 µM)
Clc1ccccc1CSc1ncnc2c1cnn2Cc1ccccc1 | 250 µg/mL (≈ 681 µM)
C#CCn1ncc2c(SCc3ccccc3)ncnc21 | 32 µg/mL (≈ 114 µM)
c1ccc(Cn2ncc3c(SCc4ccncc4)ncnc32)cc1 | 32 µg/mL (≈ 96 µM)
C=CCSc1ncnc2c1cnn2Cc1ccncc1 | 63 µg/mL (≈ 222 µM)
c1ccc(Cn2ncc3c(SCc4cccnc4)ncnc32)cc1 | 32 µg/mL (≈ 96 µM)
C=CCn1ncc2c(SCCC)ncnc21 | 63 µg/mL (≈ 269 µM)
C=CCSc1ncnc2[nH]ncc12 | 250 µg/mL (≈ 1300 µM)
N#CCn1ncc2c(SCc3ccc(Cl)cc3)ncnc21 | 8 µg/mL (≈ 25.3 µM)
CC[C@@H](CO)NCCN[C@@H](CC)CO [ETHAMBUTOL] | 2.5 µg/mL (≈ 12.2 µM)
C#CCSc1ncnc2c1cnn2Cc1ccccc1 | 63 µg/mL (≈ 225 µM)
C=CCCSc1ncnc2c1cnn2Cc1ccc(Cl)cc1 | 125 µg/mL (≈ 378 µM)
c1ccc(Cn2ncc3c(SCC4CC4)ncnc32)cc1 | 16 µg/mL (≈ 54 µM)
CCCSc1ncnc2[nH]ncc12 | 125 µg/mL (≈ 643 µM)
NNC(=O)c1ccncc1 [ISONIAZID] | 0.25 µg/mL (≈ 1.82 µM)
C=CCCSc1ncnc2c1cnn2CC#N | 63 µg/mL (≈ 257 µM)
C=CCn1ncc2c(SCc3ccc(Cl)cc3)ncnc21 | 8 µg/mL (≈ 25.3 µM)
c1nc(SCC2CC2)c2cn[nH]c2n1 | 125 µg/mL (≈ 606 µM)

Structure (SMILES) | MIC
CCCn1ncc2c(SCc3ccccc3)ncnc21 | 32 µg/mL (≈ 113 µM)
c1cncc(CSc2ncnc3[nH]ncc23)c1 | 250 µg/mL (≈ 1030 µM)
C=CCSc1ncnc2c1cnn2Cc1cccnc1 | 63 µg/mL (≈ 222 µM)
CO[C@H]1/C=C/O[C@@]2(C)Oc3c(C)c(O)c4c(O)c(c(/C=N/N5CCN(C)CC5)c(O)c4c3C2=O)NC(=O)/C(C)=C\C=C\[C@H](C)[C@H](O)[C@@H](C)[C@@H](O)[C@@H](C)[C@H](OC(C)=O)[C@@H]1C [RIFAMPIN] | 0.016 µg/mL (≈ 0.0194 µM)
C=CCSc1ncnc2c1cnn2CC1CC1 | 32 µg/mL (≈ 130 µM)
C=CCSc1ncnc2c1cnn2CCO | 250 µg/mL (≈ 1060 µM)
N#CCSc1ncnc2c1cnn2Cc1cccnc1 | 63 µg/mL (≈ 223 µM)
Clc1ccc(CSc2ncnc3c2cnn3Cc2cccnc2)cc1 | 0.5 µg/mL (≈ 1.36 µM)
Clc1ccc(CSc2ncnc3[nH]ncc23)cc1 | 250 µg/mL (≈ 903 µM)
C=CCn1ncc2c(SCc3ccccc3)ncnc21 | 32 µg/mL (≈ 113 µM)
Clc1ccc(CSc2ncnc3c2cnn3Cc2ccccc2)cc1 | 32 µg/mL (≈ 87.2 µM)
C=CCSc1ncnc2c1cnn2Cc1ccccc1Cl | 63 µg/mL (≈ 199 µM)
C=CCSc1ncnc2c1cnn2CC#N | 16 µg/mL (≈ 69.2 µM)
OCCSc1ncnc2[nH]ncc12 | 250 µg/mL (≈ 1270 µM)
C=CCCn1ncc2c(SCc3ccccc3)ncnc21 | 16 µg/mL (≈ 54 µM)
C=CCn1ncc2c(SCc3cccnc3)ncnc21 | 250 µg/mL (≈ 882 µM)
C=CCn1ncc2c(SCc3ccncc3)ncnc21 | 125 µg/mL (≈ 441 µM)
C=CCCSc1ncnc2c1cnn2CC=C | 32 µg/mL (≈ 130 µM)
c1ccc(CSc2ncnc3[nH]ncc23)cc1 | 250 µg/mL (≈ 1030 µM)
C#CCSc1ncnc2c1cnn2CC#C | 63 µg/mL (≈ 276 µM)
OCCn1ncc2c(SCc3ccccc3)ncnc21 | 125 µg/mL (≈ 437 µM)
OCCSc1ncnc2c1cnn2Cc1ccccc1 | 63 µg/mL (≈ 220 µM)

test system: not listed separately; assay: Cytotoxicity against human HepG2 cells; format: cell-based; details: read-out: TD50 (the source's name)

Structure (SMILES) | CC50
C=CCn1ncc2c(SCC#N)ncnc21 | 4 µg/mL (≈ 17.3 µM)
c1ccc(CSc2ncnc3c2cnn3Cc2cccnc2)cc1 | > 40 µg/mL
N#CCn1ncc2c(SCc3ccc(Cl)cc3)ncnc21 | 2 µg/mL (≈ 6.33 µM)
C=CCn1ncc2c(SCc3ccc(Cl)cc3)ncnc21 | > 20 µg/mL
Clc1ccc(CSc2ncnc3c2cnn3Cc2cccnc2)cc1 | > 40 µg/mL
